*1 amine or outer side, *2 acyl side, *3 side chain or, on linkers, in order; H or OH if unused. Primed or numbered codes have the meaning given here. Where no end group is shown, it is not given here. Side-chain parts run from the residue outwards. [ ]: non-standard residue; d: D form. The star is where a group is joined. C18 diacid = O=C(O)CCCCCCCCCCCCCCCCC(=O)*; γGlu = O=C(O)[C@H](CCC(=O)[*:2])N[*:1]; Stearoyl = CCCCCCCCCCCCCCCCCC(=O)*; Palmitoyl = CCCCCCCCCCCCCCCC(=O)*; PEG2′ = not defined here; Aib = CC(C)(N)C(=O)O
Tested on: Hepatic stellate cell strain LX-2
Experiment: In vitro inhibition of hepatic fibrosis: expression of LX-2 cell activation marker α-SMA (Western Blot, α-SMA/β-actin)
Format: cell-based, human
Details: LX-2 cells; for Relative expression of α-SMA (α-SMA/β-actin, %): 48 hours, negative control = 100%
Protocol: Hepatic stellate cell strain LX-2 was selected to study and observe the effect of different doses of test substances on the expression of LX-2 cell activation marker […]. Hepatic stellate cell LX-2 was laid on 35 mm cell culture plate, cultured with DMEM (high glucose)+10% FBS+1% double-antibody culture medium (Thermo Fisher), placed overnight when the cells grew to 70% convergence at 37° C. and under the condition of 5% CO2, and treated with the above compounds 1-37 (dissolved in PBS) for 48 hours the next day morning to extract cell protein, carry out Western Blot, and take β-actin as internal reference and analyze the expression quantities of α-SMA and β-actin by a gray level of Image J 1.50i. PBS with the same volume as that in experimental group was added in negative control. […] The integrating gray level of α-SMA/β-actin in the negative control group was 100% to analyze the in vitro inhibition activity of hepatic fibrosis of tested polypeptide.

| Substance | Relative expression of α-SMA (α-SMA/β-actin, %) (1 μM) | also measured |
| --- | --- | --- |
| His-(D-Ser)-Gln-Gly-Thr-Phe-Thr-Ser-Asp-Lys(PEG2-PEG2-CO(CH2)14CH3)-Ser-Lys-Tyr-Leu-Asp-Aib-Arg-Arg-Ala-Gln-Asp-Phe-Val-Gln-Trp-Leu-Met-Asn-Thr-Gly-Gly-Pro-Ser-Ser-Gly-Ala-Pro-Pro-Pro-Ser-NH2 (H[dS]QGTFTSDK([PEG2′-PEG2′-Palmitoyl])SKYLD[Aib]RRAQDFVQWLMNTGGPSSGAPPPS-NH2) [Compound 31] | 86.89% | – |
| His-(D-Ser)-Gln-Gly-Thr-Phe-Thr-Ser-Asp-Lys(PEG2-PEG2-CO(CH2)16CH3)-Ser-Lys-Tyr-Leu-Asp-Aib-Arg-Arg-Ala-Gln-Asp-Phe-Val-Gln-Trp-Leu-Met-Asn-Thr-Gly-Gly-Pro-Ser-Ser-Gly-Ala-Pro-Pro-Pro-Ser-NH2 (H[dS]QGTFTSDK([PEG2′-PEG2′-Stearoyl])SKYLD[Aib]RRAQDFVQWLMNTGGPSSGAPPPS-NH2) [Compound 32] | 97.14% | – |
| His-(D-Ser)-Gln-Gly-Thr-Phe-Thr-Ser-Asp-Lys(PEG2-PEG2-CO(CH2)16CO2H)-Soer-Lys-Tyr-Leu-Asp-Aib-Arg-Arg-Ala-Gln-Asp-Phe-Val-Gln-Trp-Leu-Met-Asn-Thr-Gly-Gly-Pro-Ser-Ser-Gly-Ala-Pro-Pro-Pro-Ser-NH2 (H[dS]QGTFTSDK([PEG2′-PEG2′-C18 diacid])SKYLD[Aib]RRAQDFVQWLMNTGGPSSGAPPPS-NH2) [Compound 30] | 85.53% | – |
| His-(D-Ser)-Gln-Gly-Thr-Phe-Thr-Ser-Asp-Lys(PEG2-PEG2-γGlu-CO(CH2)14CH3)-Ser-Lys-Tyr-Leu-Asp-Aib-Arg-Arg-Ala-Gln-Asp-Phe-Val-Gln-Trp-Leu-Met-Asn-Thr-Gly-Gly-Pro-Ser-Ser-Gly-Ala-Pro-Pro-Pro-Ser-NH2 (H[dS]QGTFTSDK([PEG2′-PEG2′-γGlu-Palmitoyl])SKYLD[Aib]RRAQDFVQWLMNTGGPSSGAPPPS-NH2) [Compound 4] | 88.50% | – |
| His-(D-Ser)-Gln-Gly-Thr-Phe-Thr-Ser-Asp-Lys(PEG2-PEG2-γGlu-CO(CH2)16CO2H)-Ser-Lys-Tyr-Leu-Asp-Aib-Arg-Arg-Ala-Gln-Asp-Phe-Val-Gln-Trp-Leu-Met-Asn-Thr-Gly-Gly-Pro-Ser-Ser-Gly-Ala-Pro-Pro-Pro-Ser-NH2 (H[dS]QGTFTSDK([PEG2′-PEG2′-γGlu-C18 diacid])SKYLD[Aib]RRAQDFVQWLMNTGGPSSGAPPPS-NH2) [Compound 5] | 67.94% | Inhibition of LX-2 cell activation marker α-SMA (in words, from Table 2): obviously reduce; Effect on expression of α-SMA (in words) (0.1 μM, 1 μM and 5 μM): reduce the expression of α-SMA under all concentrations; Relative expression of α-SMA (α-SMA/β-actin, %) (0.1 μM): 66.04%; Relative expression of α-SMA (α-SMA/β-actin, %) (5 μM): 33.45% |
| His-(D-Ser)-Gln-Gly-Thr-Phe-Thr-Ser-Asp-Tyr-Ser-Lys(PEG2-PEG2-CO(CH2)14CH3)-Lys-Leu-Asp-Aib-Arg-Arg-Ala-Gln-Asp-Phe-Val-Gln-Trp-Leu-Met-Asn-Thr-Gly-Gly-Pro-Ser-Ser-Gly-Ala-Pro-Pro-Pro-Ser-NH2 (H[dS]QGTFTSDYSK([PEG2′-PEG2′-Palmitoyl])KLD[Aib]RRAQDFVQWLMNTGGPSSGAPPPS-NH2) [Compound 9] | 75.86% | – |
| His-(D-Ser)-Gln-Gly-Thr-Phe-Thr-Ser-Asp-Tyr-Ser-Lys(PEG2-PEG2-CO(CH2)16CH3)-Lys-Leu-Asp-Aib-Arg-Arg-Ala-Gln-Asp-Phe-Val-Gln-Trp-Leu-Met-Asn-Thr-Gly-Gly-Pro-Ser-Ser-Gly-Ala-Pro-Pro-Pro-Ser-NH2 (H[dS]QGTFTSDYSK([PEG2′-PEG2′-Stearoyl])KLD[Aib]RRAQDFVQWLMNTGGPSSGAPPPS-NH2) [Compound 3] | 82.25% | – |
| His-(D-Ser)-Gln-Gly-Thr-Phe-Thr-Ser-Asp-Tyr-Ser-Lys(PEG2-PEG2-γGlu-CO(CH2)14CH3)-Lys-Leu-Asp-Aib-Arg-Arg-Ala-Gln-Asp-Phe-Val-Gln-Trp-Leu-Met-Asn-Thr-Gly-Gly-Pro-Ser-Ser-Gly-Ala-Pro-Pro-Pro-Ser-NH2 (H[dS]QGTFTSDYSK([PEG2′-PEG2′-γGlu-Palmitoyl])KLD[Aib]RRAQDFVQWLMNTGGPSSGAPPPS-NH2) [Compound 1] | 75.26% | – |
| His-(D-Ser)-Gln-Gly-Thr-Phe-Thr-Ser-Asp-Tyr-Ser-Lys(PEG2-PEG2-γGlu-CO(CH2)16CO2H)-Lys-Leu-Asp-Aib-Arg-Arg-Ala-Gln-Asp-Phe-Val-Gln-Trp-Leu-Met-Asn-Thr-Gly-Gly-Pro-Ser-Ser-Gly-Ala-Pro-Pro-Pro-Ser-NH2 (H[dS]QGTFTSDYSK([PEG2′-PEG2′-γGlu-C18 diacid])KLD[Aib]RRAQDFVQWLMNTGGPSSGAPPPS-NH2) [Compound 20] | 68.39% | Inhibition of LX-2 cell activation marker α-SMA (in words, from Table 2): obviously reduce |
| His-(D-Ser)-Gln-Gly-Thr-Phe-Thr-Ser-Asp-Tyr-Ser-Lys-Tyr-Leu-Asp-Aib-Lys(PEG2-PEG2-CO(CH2)16CO2H)-Arg-Ala-Gln-Asp-Phe-Val-Gln-Trp-Leu-Met-Asn-Thr-Gly-Gly-Pro-Ser-Ser-Gly-Ala-Pro-Pro-Pro-Ser-NH2 (H[dS]QGTFTSDYSKYLD[Aib]K([PEG2′-PEG2′-C18 diacid])RAQDFVQWLMNTGGPSSGAPPPS-NH2) [Compound 10] | 71.49% | – |
| His-(D-Ser)-Gln-Gly-Thr-Phe-Thr-Ser-Asp-Tyr-Ser-Lys-Tyr-Leu-Asp-Aib-Lys(PEG2-PEG2-γGlu-CO(CH2)14CH3)-Arg-Ala-Gln-Asp-Phe-Val-Gln-Trp-Leu-Met-Asn-Thr-Gly-Gly-Pro-Ser-Ser-Gly-Ala-Pro-Pro-Pro-Ser-NH2 (H[dS]QGTFTSDYSKYLD[Aib]K([PEG2′-PEG2′-γGlu-Palmitoyl])RAQDFVQWLMNTGGPSSGAPPPS-NH2) [Compound 33] | 95.45% | – |
| His-(D-Ser)-Gln-Gly-Thr-Phe-Thr-Ser-Asp-Tyr-Ser-Lys-Tyr-Leu-Asp-Aib-Lys(PEG2-PEG2-γGlu-CO(CH2)16CO2H)-Arg-Ala-Gln-Asp-Phe-Val-Gln-Trp-Leu-Met-Asn-Thr-Gly-Gly-Pro-Ser-Ser-Gly-Ala-Pro-Pro-Pro-Ser-NH2 (H[dS]QGTFTSDYSKYLD[Aib]K([PEG2′-PEG2′-γGlu-C18 diacid])RAQDFVQWLMNTGGPSSGAPPPS-NH2) [Compound 7] | 73.52% | – |
| His-(D-Ser)-Gln-Gly-Thr-Phe-Thr-Ser-Asp-Tyr-Ser-Lys-Tyr-Leu-Asp-Glu-Lys-Ala-Ala-Lys(PEG2-PEG2-γGlu-CO(CH2)14CH3)-Glu-Phe-Ile-Glu-Trp-Leu-Leu-Arg-Ala-NH2 (H[dS]QGTFTSDYSKYLDEKAAK([PEG2′-PEG2′-γGlu-Palmitoyl])EFIEWLLRA-NH2) [Compound 23] | 95.91% | – |
| His-(D-Ser)-Gln-Gly-Thr-Phe-Thr-Ser-Asp-Tyr-Ser-Lys-Tyr-Leu-Asp-Glu-Lys-Ala-Ala-Lys(PEG2-PEG2-γGlu-CO(CH2)14CH3)-Glu-Phe-Ile-Glu-Trp-Leu-Leu-Asn-Gly-Gly-Pro-Ser-Ser-Gly-Ala-Pro-Pro-Pro-Ser-NH2 (H[dS]QGTFTSDYSKYLDEKAAK([PEG2′-PEG2′-γGlu-Palmitoyl])EFIEWLLNGGPSSGAPPPS-NH2) [Compound 29] | 89.36% | – |

Source: patent US11197914B2, “GLP-1R/GCGR dual target agonist polypeptide for treatment of fatty liver diseases, hyperlipemia and arteriosclerosis” (Shenzhen Turier Biotech Co., Ltd., priority 2016, dated 2021)
